Literature values in patent US12176087B2, “Pharmacogenomic decision support for modulators of the NMDA, glycine, and AMPA receptors” (THE REGENT OF THE UNIVERSITY OF MICHIGAN, priority 2019, dated 2024).

Assays:
[1] = tested on: treatment-resistant depression (TRD) patients
[2] = tested on: TRD patients; settings: phase III trial

| Structure (SMILES) | TRD patients who do not remit after treatment ([1]; fraction of all TRD patients) | TRD patients with rapid antidepressant response and concomitant elevated levels of glutamate in cortex ([1]; measured by MADRS total score) | deaths reported [2] | TRD patients who experienced severe dissociative effects ([2]; fraction of TRD patients) | TRD patients in the treatment arm with severe psychotomimetic effects including delirium, delusion and suicidal ideation, as well as suicide attempts ([2]; treatment arm, additional) [%] |
| --- | --- | --- | --- | --- | --- |
| CNC1(c2ccccc2Cl)CCCCC1=O (racemic) [Ketamine, RS-2-chlorophenyl-2-methylamino-cyclohexanone] | about half | approximately 50% |  |  |  |
| CN[C@]1(c2ccccc2Cl)CCCCC1=O [Esketamine] |  |  | 2 | a quarter | 6.9 |
